From patent US20150273070A1, “MODIFIED RELEASE OF 4-METHYL-3-[[4-(3-PYRIDINYL)-2-PYRIMIDINYL]AMINO]-N-[5-(4-METHYL-1H-IMIDAZOL-1-YL)-3-(TRIFLOUOROMETHYL)PHENYL] BENZAMIDE SOLUBILIZED USING ORGANIC ACIDS” (Novartis AG, priority 2011, published 2015)

How the values were obtained:
[1] = Solubility of nilotinib in ethanol with citric acid; format: physicochemical
[2] = Solubility of nilotinib in lactic acid; format: physicochemical
Text: Nilotinib solubilized modified release solid dosage forms containing lactic acid were developed. […] Surfactants and/or polymers were used to prevent the precipitation after solubilized nilotinib is released from the formulation matrix. Due to the liquid nature of lactic acid this formulation matrix is in the liquid form. However, by incorporation of additional suitable excipients, the formulation could be solidified at room temperature. This improved the physical and chemical stability of nilotinib in the formulation. In addition, the solid state also provided the opportunity to modulate the drug release rate.

Cc1cn(-c2cc(NC(=O)c3ccc(C)c(Nc4nccc(-c5cccnc5)n4)c3)cc(C(F)(F)F)c2)cn1 [nilotinib, 4-Methyl-3-[[4-(3-pyrldinyl)-2-pyrimidinyl]amino]-N-[5-(4-methyl-1H-imidazol-1-yl)-3-(trifluoromethyl)phenyl] benzamide]
solubility of the drug in ethanol [1]: remarkably high solubility
solubility at intestinal pH ([2]; in presence of surfactants and/or polymers): could maintain its solubility at intestinal pH
solubility ([2]; lactic acid, organic solvent or mixture, at 65° C.): > 600 mg/mL
